Results published in patent EP4553083A1, “PEPTIDES AND THEIR USE FOR THE TREATMENT AND/OR PREVENTION OF MULTIPLE SCLEROSIS” (Cellerys AG, priority 2023, dated 2025).
Ends that are not written are not given here.

Experiments:
[1] = Peptide solubility test in saline (visual: cloudy = insoluble, clear = soluble); conditions: visual assessment
Experimental: MBP, MOG and PLP peptides were also tested.
Peptides were added to saline at different concentrations and it was visually assessed whether the resulting sample was cloudy (peptide insoluble) or clear (peptide soluble).

[2] = system: RASGRP2 78-87-specific T cell clones (TCCs); assay: T cell reactivity in RASGRP2 (78-87) specific T cell clones (3H-thymidine assay); format: cell-based, human; conditions: 72 hours; four DRB1*15:01-restricted clones; presented by BLS DR2b cells; Figure 6
Experimental: Four RASGRP2 78-87-specific T cell clones (TCCs) (cf. Wang et al., 2020, Cell, 183(5):1264-1281) were tested by 3H-thymidine incorporation (72 hours) for their responses against the biotinylated RASGRP2 (74-91) (SEQ ID NO: 2) peptide "bioRASGRP2 74-91" and a positive control, i.e. stimulation with anti-CD2/3/28-coupled beads. Each of the clones is DRB1*15:01-restricted.
Proliferation was measured 72 h after stimulation by 3H-thymidine (Hartmann Analytic, Braunschweig, Germany) incorporation in a scintillation counter (Wallac 1450, PerkinElmer, Rodgau-Jürgesheim, Germany). Depicted is the fold change over unstimulated control. Each dot represents the mean of 3 repeat wells for each clone. Peptides were presented in the assay by BLS cells transfected with DRA*01:01 and DRB1*15:01 (the heterodimer is referred to as BLS DR2b).

TCC14 = assay: Antigen specificity of TCC14 (co-cultivation with monocytes and peptide-coupled RBCs, fluorospot); format: cell-based, human; conditions: irrelevant peptide; 48 hours; Figure 15
Experimental: In order to evaluate whether the IL-10 and IFN-γ secretion upon co-culturing TCC14 with active monocytes and peptide-coupled RBCs is antigen-specific, biotinylated SIN3A* peptide ([…]) (SEQ ID NO: 38) was coupled to RBCs and co-cultured with TCC14 and active monocytes. […] Therefore, it was tested if the SIN3A*-coupled RBCs have any effect on TCC14. Soluble SIN3A* peptide (QPVEFNHAIHYVN) (SEQ ID NO: 39) was used for stimulation.
Monocytes were magnetically isolated from PBMCs of a DR15 donor and seeded at 50×10^3 in each well. 25 ×10^3 of the TCC14 was seeded in each well (final volume 200 µl). Coupling to RBCs was performed with 1.58 mg/ml (0.132 mg/ml × 12) of the respective peptide. 200×10^3 RBCs were added to each well.
IFN-α was directly added into the wells at the time of seeding the cells at 10000 U/ml. In the samples with soluble peptides, 10 µM of the peptides was added to the wells. Plates were incubated for 48 hours and stained for IFN-γ, IL-10 and IL-17 according to the manufacturer's instructions (see fluorospot assay supra).

Substance | solubility in saline ([1]; at a concentration of 10 mg/ml) | solubility in saline ([1]; concentration not given) | further results
FRFTPFKQAVKETCA [TSTA3-4 (296-310), FRFTPFKQAVKETCA] | soluble in saline | – | –
LVRYWISAFPAEFDLNPE [RASGRP2 78-95, LVRYWISAFPAEFDLNPE] | – | insoluble in saline | –
LVRYWISAFPAEFDL [RASGRP2 78-92, LVRYWISAFPAEFDL] | – | insoluble in saline | –
LVRYWISAFP [RASGRP2 78-87, LVRYWISAFP] | – | not soluble in saline | –
LSVGEEDEVS [TSTA3-3 (242-251), LSVGEEDEVS] | soluble in saline | – | –
SNSLQVKTCHLVRYWISAFPAEFDLNPELA [RASGRP2 68-97] | – | insoluble in saline | –
KTCHLVRYWISAFPAEFD [RASGRP2 (74-91), KTCHLVRYWISAFPAEFD] | soluble in saline | – | –
PHNSNFGYSYAKRMI [TSTA3-2 (136-150), PHNSNFGYSYAKRMI] | soluble in saline | – | –
TAQTRALFEKVQPTH [TSTA3-1 (51-65), TAQTRALFEKVQPTH] | soluble in saline | – | –
biotinylated RASGRP2 (74-91): RASGRP2 (74-91) (SEQ ID NO: 2) coupled to a Biotin-PEG linker (Maleimide-PEG2-Biotin) (KTCHLVRYWISAFPAEFD; also: coupled to Maleimide-PEG2-Biotin linker, site not given here; listed as Homo sapiens) | – | – | proliferative response (3H-thymidine incorporation) [2]: positive proliferative response
SLQVKTCHLVRYWISAFPAEFDLNPE [RASGRP2 70-95] | – | insoluble in saline | –
QPVEFNHAIHYVN [SIN3A*, irrelevant peptide, a tumor-specific antigen not recognized by TCC14] | – | – | effect on the T cell clone (IL-10 and IFN-γ secretion) (TCC14): neither stimulatory nor inhibitory
